Data from patent US5853742A, “Cosmetic compositions containing lactate dehydrogenase inhibitors” (priority 1997, dated 1998).

Assays:
[1] = system: Neonatal human dermal fibroblasts; assay: Collagen synthesis (secreted procollagen 1 immunoassay); assay type: cell-based; details: 0.2 to 20 mM, 48 hours, serum-free medium
Description: Neonatal human dermal fibroblasts were purchased from Clonetics Corp., San Diego, Calif. All materials for cell culture were purchased from Life Technologies, N.Y. Cells were maintained in DMEM with 10% fetal bovine serum and used in passages 5-10, Confluent 96-well plates containing fibroblasts were treated with test materials (0.2 to 20 mM) in serum-free medium for 48 hours. […] This was carried out in a BioDot SF apparatus according to the manufacturer's instructions (BioRad Labs, CA) and the blot was developed using a Vectastain Kit (PK6104, Vector Labs, CA) as per the manufacturer's directions. Color intensity was quantitated using an Ultroscan XL densitometer (Pharmacia LKB). Fold increase was calculated as (density of treated)/untreated.

[2] = system: Normal human epidermal keratinocytes (NHEK); assay: Keratinocyte proliferation (DNA content, fluorometric); assay type: cell-based
Description: Normal human epidermal keratinocytes (NHEK) derived from neonatal foreskin were used for all experiments. Media were purchased from Clonetics Corp., San Diego, Calif. Cell stocks frozen in passage 2 were grown in Keratinocyte Growth Medium (KGM) and passaged when 70-80% confluent. Cells were seeded in 96 well plates (Corning) at a density of 7500 cells/well in KGM. After 24 hours, cells were rinsed and dosed with test compounds in 200 μl of Keratinocyte Basal Medium (KBM). Plates were incubated for three days at 37° C., 5% CO2. Cell proliferation was estimated by assaying for DNA content by a fluorometric method described by Rago et al. (Analytical Biochemistry, 191:31-34, 1990). Medium was removed and cells were rinsed with phosphate buffered saline solution. 100 μl of sterile distilled water was added to each well and plates were frozen at -70° C. for one and a half hours. Plates were thawed for one hour at which time 100 μl of a 20 ug/ml solution of Bisbenzimide H33258 fluorochrome (Calbiochem Corp., La Jolla, Calif.) was added to each well. The fluorochrome was prepared just prior to use in 10 mM Tris, 1 mM EDTA, 4M NaCl, pH 7.4. Plates were read in a Millipore Cytofluor fluorescent plate reader to quantify DNA (excitation 360 nm, emission 460 nm). Percent increase over control was calculated from blank-corrected readings as (treated-untreated)/(untreated)*100%.

With `O=C(O)CC(=O)C(=O)O` [Oxaloacetate] the “Maximum fold over Control (collagen synthesis)” value [1] was 3.0 fold, the activation at 2 µM ([2]; Homo sapiens, NHEK, 72 h, read-out: % Increase Over Control (keratinocyte proliferation), Table 9, oxaloacetate 0.002 mM) was 11% and the activation at 20 µM ([2]; Homo sapiens, NHEK, 72 h, read-out: % Increase Over Control (keratinocyte proliferation), Table 9, oxaloacetate 0.02 mM) was 15%. It also gave an activation at 80 µM ([2]; Homo sapiens, NHEK, 72 h, read-out: % Increase Over Control (keratinocyte proliferation), Table 9, oxaloacetate 0.08 mM) of 56%, an activation at 200 µM ([2]; Homo sapiens, NHEK, 72 h, read-out: % Increase Over Control (keratinocyte proliferation), Table 9, oxaloacetate 0.2 mM) of 22% and an activation at 2500 µM ([2]; Homo sapiens, NHEK, 72 h, read-out: % Increase Over Control (keratinocyte proliferation), Table 9, oxaloacetate 2.5 mM) of 40%. For the same molecule, the activation at 5000 µM ([2]; Homo sapiens, NHEK, 72 h, read-out: % Increase Over Control (keratinocyte proliferation), Table 9, oxaloacetate 5.0 mM) was 35%, the activation at 20000 µM ([2]; Homo sapiens, NHEK, 72 h, read-out: % Increase Over Control (keratinocyte proliferation), Table 9, oxaloacetate 20 mM) was 44% and the “% Increase Over Control (keratinocyte proliferation)” value (“% Increase Over Control” below) ([2]; Table 9, oxaloacetate 0.02 mM) was 30%. The “% Increase Over Control” value ([2]; Table 9, oxaloacetate 0.2 mM) was 20%, the “% Increase Over Control” value ([2]; Table 9, oxaloacetate 2.5 mM) was 37% and the “% Increase Over Control” value ([2]; Table 9, oxaloacetate 5.0 mM) was 52%.
